From patent publication US10869928B2, “Lyophilized preparation of cytotoxic dipeptides” (ONCOPEPTIDES AB, priority 2011, dated 2020)
Where a name gives a salt, the structure may show the parent alone.

Assays:
[1] = Determination of dissolution rate (Example 5); type: physicochemical; details: Solution: 5% glucose + Polysorbate 80
Procedure: A 5% glucose solution was added to each plastic vial containing J1. The vials were shaken and filtered at different time-points. The filtrate was transferred to glass vials and the amount of dissolved J1 was determined by HPLC.

[2] = Stability of melphalan flufenamide dissolved in DMA in a glucose solution; details: dissolved in DMA (dimethylacetamide) in a glucose solution
[3] = Stability in aqueous solutions; type: physicochemical

SMILES | Time (min) to reach steady state dissolution [1] [min] | degradation [2] [% degradation/h] | hydrolysis in water ([3]; water) | times more stable in aqueous solutions compared to J1 ([3]; aqueous solutions, relative to J1)
CCOC(=O)[C@H](Cc1ccc(F)cc1)NC(=O)[C@@H](N)Cc1ccc(N(CCCl)CCCl)cc1 [Experiment J1, melphalanyl-L-p-fluorophenylalanine ethyl ester hydrochloride] | 1 to 2 | 7 | quickly hydrolyzed | –
N[C@@H](Cc1ccc(N(CCCl)CCCl)cc1)C(=O)O [Melphalan, p-[bis-(2-chloroethyl)amino]phenylalanine, reference compound] | – | – | – | 10,000 times
